Experimental data reported in ChEMBL document CHEMBL4834480, “Discovery of 3,5-Dimethyl-4-Sulfonyl-1H-Pyrrole-Based Myeloid Cell Leukemia 1 Inhibitors with High Affinity, Selectivity, and Oral Bioavailability” (J Med Chem, 2021).
Each block holds one compound with its values, some of them ahead of it. Calls of active or inactive are those of the source. The rule behind the calls is not given here.

What was measured:
[1] = target: T1, Induced myeloid leukemia cell differentiation protein Mcl-1 (Homo sapiens, UniProt Q07820); experiment: Inhibition of FITC-labeled Bak BH3 peptide binding to GST-tagged MCL1 (171 to 327 residues) (unknown origin) expressed in Escherichia coli BL21 (DE3) incubated for 30 mins fluorescence polarization-based competitive binding assay
[2] = target: Apoptosis regulator Bcl-2 (Homo sapiens, UniProt P10415); experiment: Inhibition of FITC-labeled Bak BH3 peptide binding to GST-tagged BCL2 (1 to 205 residues) (unknown origin) expressed in Escherichia coli BL21 (DE3) at 10 uM incubated for 30 mins fluorescence polarization-based competitive binding assay relative to control
[3] = target: T2, Bcl-2-related protein A1 (Homo sapiens) (UniProt Q16548); experiment: Inhibition of FITC-labeled Bak BH3 peptide binding to GST-tagged BFL1 (1 to 151 residues) (unknown origin) expressed in Escherichia coli BL21 (DE3) at 10 uM incubated for 30 mins fluorescence polarization-based competitive binding assay relative to control
T2 sequence (whole entry): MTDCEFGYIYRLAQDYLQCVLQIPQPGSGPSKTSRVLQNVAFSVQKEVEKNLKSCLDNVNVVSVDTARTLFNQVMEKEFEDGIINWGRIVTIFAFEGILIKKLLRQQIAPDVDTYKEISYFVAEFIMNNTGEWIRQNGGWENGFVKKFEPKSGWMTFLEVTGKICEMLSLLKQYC

[4] = target: Bcl-2-like protein 1 (Homo sapiens, UniProt Q07817); experiment: Inhibition of BCL-XL(unknown origin) at 10 uM incubated for 120 mins by TR-FRET assay relative to control
[5] = system: NCI-H23; experiment: Antiproliferative activity against human NCI-H23 cells assessed as decrease in cell viability measured after 72 hrs by MTT assay; type: functional, cell-based; settings: NCI-H23, 72 h
[6] = system: MV4-11; experiment: Antiproliferative activity against human MV4-11 cells assessed as decrease in cell viability measured after 72 hrs by MTT assay; type: functional, cell-based; settings: MV4-11, 72 h
[7] = system: SK-BR-3; experiment: Antiproliferative activity against human SK-BR-3 cells assessed as decrease in cell viability measured after 72 hrs by MTT assay; type: functional, cell-based; settings: SK-BR-3, 72 h
[8] = system: K562; experiment: Antiproliferative activity against human K562 cells assessed as decrease in cell viability measured after 72 hrs by MTT assay; type: functional, cell-based; settings: K562, 72 h
[9] = system: NCI-H929; experiment: Antiproliferative activity against human NCI-H929 cells assessed as decrease in cell viability measured after 72 hrs by MTT assay; type: functional, cell-based; settings: NCI-H929, 72 h
[10] = target: T1, Induced myeloid leukemia cell differentiation protein Mcl-1; experiment: Inhibition of FITC-labeled Bak BH3 peptide binding to GST-tagged MCL1 (171 to 327 residues) (unknown origin) expressed in Escherichia coli BL21 (DE3) at 30 uM incubated for 30 mins fluorescence polarization-based competitive binding assay relative to control
[11] = system: NCI-H929; experiment: Induction of apoptosis in human NCI-H929 cells measured after 48 hrs by annexinV-FITC/propidium iodide staining based flow cytometry analysis; type: functional, cell-based; settings: dose 1-5 µM
[12] = system: K562; experiment: Induction of apoptosis in human K562 cells assessed as upregulation of cleaved PARP up to 5 uM measured after 48 hrs by Western blot analysis; type: functional, cell-based; settings: dose microM <=5, time 48.0 hrs
[13] = system: K562; experiment: Induction of apoptosis in human K562 cells assessed as activation of caspase 3 up to 5 uM after 4 hrs by luminescence based microplate reader assay; type: functional, cell-based; settings: dose microM <=5, time 4.0 hrs
[14] = system: NCI-H929; experiment: Induction of apoptosis in human NCI-H929 cells assessed as upregulation of cleaved PARP measured after 48 hrs by Western blot analysis; type: functional, cell-based; settings: dose microM <=5, time 48.0 hrs
[15] = system: K562; experiment: Induction of apoptosis in human K562 cells assessed as activation of caspase 7 up to 5 uM after 4 hrs by luminescence based microplate reader assay; type: functional, cell-based; settings: dose microM <=5, time 4.0 hrs

T1 sequence (Q07820 whole entry, the tested form may be a part): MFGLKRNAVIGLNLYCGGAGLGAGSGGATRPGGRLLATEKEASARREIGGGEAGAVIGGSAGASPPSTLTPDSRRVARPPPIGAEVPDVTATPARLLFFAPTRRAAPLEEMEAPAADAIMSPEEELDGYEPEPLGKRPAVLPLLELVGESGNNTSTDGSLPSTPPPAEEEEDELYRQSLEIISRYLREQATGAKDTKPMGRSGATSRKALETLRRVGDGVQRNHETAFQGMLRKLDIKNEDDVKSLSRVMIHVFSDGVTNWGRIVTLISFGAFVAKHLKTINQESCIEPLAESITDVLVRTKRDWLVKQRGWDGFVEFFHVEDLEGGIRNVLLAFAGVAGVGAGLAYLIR
Apoptosis regulator Bcl-2, sequence (P10415 whole entry, the tested form may be a part): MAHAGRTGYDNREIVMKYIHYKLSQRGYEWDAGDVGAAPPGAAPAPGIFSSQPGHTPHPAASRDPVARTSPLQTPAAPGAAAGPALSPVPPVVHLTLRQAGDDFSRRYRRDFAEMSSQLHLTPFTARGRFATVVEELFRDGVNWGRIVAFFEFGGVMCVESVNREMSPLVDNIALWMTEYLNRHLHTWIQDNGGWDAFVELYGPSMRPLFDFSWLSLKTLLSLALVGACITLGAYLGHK
Bcl-2-like protein 1, sequence (Q07817 whole entry): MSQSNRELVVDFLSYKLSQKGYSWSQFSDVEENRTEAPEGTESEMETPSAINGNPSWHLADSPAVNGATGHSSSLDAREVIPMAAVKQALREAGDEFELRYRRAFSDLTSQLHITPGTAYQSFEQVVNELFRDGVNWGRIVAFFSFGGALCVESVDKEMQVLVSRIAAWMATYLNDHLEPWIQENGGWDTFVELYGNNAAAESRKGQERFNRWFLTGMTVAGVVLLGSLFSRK

Compound: Cc1ccc(C(=O)c2cc(C(=O)O)n(CCCOc3cc(C)c(Cl)c(C)c3)c2)cc1
Ki [1]: 700 nM

Compound: Cc1ccc(S(=O)(=O)c2cc(C(=O)O)n(CCCOc3cc(C)c(Cl)c(C)c3)c2)cc1
Ki [1]: 470 nM

Compound: CC(=O)c1cccc(S(=O)(=O)c2c(C)c(C(=O)O)n(CCCOc3cc(C)c(Cl)c(C)c3)c2C)c1
Ki [1]: 550 nM

Compound: Cc1ccc(S(=O)(=O)c2c(CC(C)C)c(C(=O)O)n(CCCOc3cc(C)c(Cl)c(C)c3)c2C)cc1
Ki [1]: 240 nM

Compound: CCc1c(S(=O)(=O)c2ccc(C)cc2)c(CC)n(CCCOc2cc(C)c(Cl)c(C)c2)c1C(=O)O
Ki [1]: 1930 nM

Compound: Cc1cc(OCCCn2c(C)c(S(=O)(=O)c3ccccc3Br)c(C)c2C(=O)O)cc(C)c1Cl
Ki [1]: > 10000 nM

Compound: Cc1ccc(Cc2cc(C(=O)O)n(CCCOc3cc(C)c(Cl)c(C)c3)c2)cc1
Ki [1]: 5340 nM
inhibition [10]: 53%

Compound: Cc1cc(C)cc(S(=O)(=O)c2c(C)c(C(=O)O)n(CCCOc3cc(C)c(Cl)c(C)c3)c2C)c1
Ki [1]: > 10000 nM

Compound: Cc1cc(OCCCn2c(C)c(S(=O)(=O)c3cccc4ccccc34)c(C)c2C(=O)O)cc(C)c1Cl
Ki [1]: 360 nM

Compound: Cc1cc(OCCCn2c(C)c(S(=O)(=O)c3ccc(C(C)(C)C)cc3)c(C)c2C(=O)O)cc(C)c1Cl
Ki [1]: 340 nM

Compound: Cc1ccc(S(=O)(=O)Nc2cc(C(=O)O)n(CCCOc3cc(C)c(Cl)c(C)c3)c2)cc1
Ki [1]: > 10000 nM

Compound: Cc1cc(OCCCn2c(C)c(S(=O)(=O)c3ccncc3)c(C)c2C(=O)O)cc(C)c1Cl
Ki [1]: 900 nM

Compound: Cc1ccc(S(=O)(=O)c2c(C)c(C(=O)O)n(CCCOc3cc(C)c(Cl)c(C)c3)c2CC(C)C)cc1
Ki [1]: 1600 nM

Stronger by Ki [1], values ahead:

Ki [1]: 140 nM
Compound: CCOc1ccc(S(=O)(=O)c2c(C)c(C(=O)O)n(CCCOc3cc(C)c(Cl)c(C)c3)c2C)cc1

Ki [1]: 130 nM
Compound: Cc1cc(OCCCn2c(C)c(S(=O)(=O)c3ccc(-c4ccccc4)cc3)c(C)c2C(=O)O)cc(C)c1Cl

inhibition [2]: 12.4%
inhibition [3]: 8.77%
inhibition [4]: 36%
Ki [1]: 70 nM
IC50 [5]: 5.41 µM
IC50 [6]: 2590 nM
IC50 [7]: 3.92 µM
IC50 [8]: > 30 µM
IC50 [9]: 490 nM
Compound: CCc1ccc(S(=O)(=O)c2c(C)c(C(=O)O)n(CCCOc3cc(C)c(Cl)c(C)c3)c2C)cc1

Ki [1]: 170 nM
Compound: Cc1ccc(S(=O)(=O)c2c(C)c(C(=O)O)n(CCCOc3cc(C)c(Cl)c(C)c3)c2C)cc1

Ki [1]: 150 nM
Compound: Cc1cc(OCCCn2c(C)c(S(=O)(=O)c3cccc(O)c3)c(C)c2C(=O)O)cc(C)c1Cl

Ki [1]: 200 nM
Compound: Cc1cc(OCCCn2c(C)c(S(=O)(=O)c3ccc(Oc4ccccc4)cc3)c(C)c2C(=O)O)cc(C)c1Cl

Ki [1]: 150 nM
Compound: Cc1cc(OCCCn2c(C)c(S(=O)(=O)c3ccccc3O)c(C)c2C(=O)O)cc(C)c1Cl

inhibition [2]: 14.2%
inhibition [3]: 1.82%
inhibition [4]: 27%
Ki [1]: 70 nM
IC50 [5]: 9.72 µM
IC50 [6]: 1560 nM
IC50 [7]: 6.27 µM
IC50 [8]: > 30 µM
IC50 [9]: 390 nM
Compound: COc1ccc(S(=O)(=O)c2c(C)c(C(=O)O)n(CCCOc3cc(C)c(Cl)c(C)c3)c2C)cc1

Ki [1]: 6 nM
IC50 [5]: 13.5 µM
IC50 [6]: 1550 nM
IC50 [7]: 4.31 µM
IC50 [8]: > 30 µM
IC50 [9]: 900 nM
Compound: Cc1nn(C)c(COc2ccc(N3CCN(S(=O)(=O)N(C)C)CC3)cc2)c1-c1cccc2c(CCCOc3cccc4ccccc34)c(C(=O)O)n(CCN3CCOCC3)c12
Activity [11]: Dose-Dependent Effect
Activity [12]: inactive
Activity [13]: inactive
Activity [14]: Dose-Dependent Effect
Activity [15]: inactive

Ki [1]: 170 nM
Compound: Cc1cc(OCCCn2c(C)c(S(=O)(=O)c3ccc(C(C)C)cc3)c(C)c2C(=O)O)cc(C)c1Cl

Ki [1]: 18 nM
IC50 [5]: 2.16 µM
IC50 [6]: 2020 nM
IC50 [7]: 7.02 µM
IC50 [8]: 14.8 µM
IC50 [9]: 1390 nM
Compound: Cc1cc(OCCCn2c(C)c(S(=O)(=O)c3ccc(O)cc3)c(C)c2C(=O)O)cc(C)c1Cl
